# Source: patent publication US20250271426A1, “REDUCTION OF BITTER TASTE OF ACTIVE PHARMACEUTICAL INGREDIENTS AND RELATED ASSAYS AND SCREENING METHODS” (Firmenich Incorporated, priority 2022, published 2025)
# Tests used:
# Experiment in all cases: FLIPR calcium assay, cells with promiscuous G protein transfected with bitter receptor cDNA
# Format in all cases: cell-based
# Details in all cases: responsive if cellular response of >10% over baseline, Fluo4-AM
# [1] = target: T1, T2R receptor SEQ ID NO: 1 (S1) (Homo sapiens, UniProt Q9NYW7)
# T1 construct: expressed in transfected cells; host or cells: cells expressing a promiscuous G protein (e.g., G16g44)
# T1 sequence (Q9NYW7 1-299): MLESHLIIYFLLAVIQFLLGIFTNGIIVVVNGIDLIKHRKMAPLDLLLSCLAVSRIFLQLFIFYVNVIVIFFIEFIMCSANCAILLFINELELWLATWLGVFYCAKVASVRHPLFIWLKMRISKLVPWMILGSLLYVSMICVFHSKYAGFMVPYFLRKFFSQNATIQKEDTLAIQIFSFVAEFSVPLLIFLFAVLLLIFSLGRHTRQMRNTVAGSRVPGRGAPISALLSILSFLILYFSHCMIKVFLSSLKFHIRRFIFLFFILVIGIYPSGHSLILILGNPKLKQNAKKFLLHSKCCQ
# Protocol: (§1) Cells expressing a promiscuous G protein (e.g., G16g44) were transfected with vectors encoding 22 functional bitter receptor cDNAs, with one receptor per transfection. The cells were transfected directly in 384-well format high-density plates and incubated for 28 hours. Later, cells were loaded with the Ca-specific dye Fluo4-AM. After an incubation of 60 minutes, excess dye is washed off, and cells are stimulated with respective bitter agonists while simultaneously recording changes in intracellular fluorescence using a FLIPR instrument.
# (§2) The above protocol was carried out using 94 different active pharmaceutical ingredients (APIs) that span a wide range of different APIs having a diversity of chemical structures. A particular T2R receptor was identified as being responsive to a particular API if it triggered a cellular response of >10% over baseline.
# [2] = target: T2, T2R receptor SEQ ID NO: 4 (S4) (Homo sapiens, UniProt Q9NYV8)
# T2 construct: expressed in transfected cells; host or cells: cells expressing a promiscuous G protein (e.g., G16g44)
# T2 sequence (Q9NYV8 1-317): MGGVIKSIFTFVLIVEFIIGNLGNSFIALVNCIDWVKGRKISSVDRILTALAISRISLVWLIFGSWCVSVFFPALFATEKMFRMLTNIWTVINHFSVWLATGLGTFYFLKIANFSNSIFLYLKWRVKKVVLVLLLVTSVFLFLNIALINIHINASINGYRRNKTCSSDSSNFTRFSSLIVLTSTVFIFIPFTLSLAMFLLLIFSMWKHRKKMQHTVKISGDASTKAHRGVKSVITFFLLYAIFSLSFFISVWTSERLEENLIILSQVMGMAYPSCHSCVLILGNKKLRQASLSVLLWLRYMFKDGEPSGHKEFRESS
# Protocol: as §1, §2
# [3] = target: T3, T2R receptor SEQ ID NO: 3 (S3) (Homo sapiens, UniProt Q9NYW0, T156M)
# T3 construct: expressed in transfected cells; host or cells: cells expressing a promiscuous G protein (e.g., G16g44)
# T3 sequence (Q9NYW0 1-307 T156M): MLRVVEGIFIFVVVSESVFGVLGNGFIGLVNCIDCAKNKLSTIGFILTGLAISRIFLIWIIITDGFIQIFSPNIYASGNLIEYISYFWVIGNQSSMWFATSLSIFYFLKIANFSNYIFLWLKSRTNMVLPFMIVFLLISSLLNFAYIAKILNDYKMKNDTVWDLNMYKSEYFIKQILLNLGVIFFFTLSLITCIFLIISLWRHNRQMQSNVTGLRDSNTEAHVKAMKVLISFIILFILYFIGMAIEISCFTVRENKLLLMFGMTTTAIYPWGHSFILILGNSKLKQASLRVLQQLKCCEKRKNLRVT
# Protocol: as §1, §2
# [4] = target: T4, T2R receptor SEQ ID NO: 6 (S6) (Homo sapiens, UniProt P59540)
# T4 construct: expressed in transfected cells; host or cells: cells expressing a promiscuous G protein (e.g., G16g44)
# T4 sequence (P59540 1-309): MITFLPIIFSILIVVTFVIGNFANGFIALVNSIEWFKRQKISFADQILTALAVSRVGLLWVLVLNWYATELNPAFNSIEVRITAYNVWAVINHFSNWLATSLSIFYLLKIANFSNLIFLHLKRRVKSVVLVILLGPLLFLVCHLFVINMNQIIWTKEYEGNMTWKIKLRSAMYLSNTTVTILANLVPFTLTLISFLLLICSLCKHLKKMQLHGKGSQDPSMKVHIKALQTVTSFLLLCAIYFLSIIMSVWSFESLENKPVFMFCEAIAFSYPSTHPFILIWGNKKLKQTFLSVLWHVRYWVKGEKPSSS
# Protocol: as §1, §2
Structure (SMILES),S1 positive response of T2R receptor to API [1],S4 positive response of T2R receptor to API [2],S3 positive response of T2R receptor to API [3],S6 positive response of T2R receptor to API [4]
C=CC[C@@H]1/C=C(\C)C[C@H](C)C[C@H](OC)[C@H]2O[C@@](O)(C(=O)C(=O)N3CCCC[C@H]3C(=O)O[C@H](/C(C)=C/[C@@H]3CC[C@@H](O)[C@H](OC)C3)[C@H](C)[C@@H](O)CC1=O)[C@H](C)C[C@@H]2OC [Fujimycin],+ (a “+” to indicate whether a particular T2R receptor showed a positive response to a particular API),–,–,–
C=CCC1(C(C)CCC)C(=O)NC(=O)NC1=O (stereo not shown) [Secobarbital Sodium],–,+ (a “+” to indicate whether a particular T2R receptor showed a positive response to a particular API),–,–
CCC1=C(C)CN(C(=O)NCCc2ccc(S(=O)(=O)NC(=O)N[C@H]3CC[C@H](C)CC3)cc2)C1=O [Glimepiride],–,+ (a “+” to indicate whether a particular T2R receptor showed a positive response to a particular API),–,–
CCCC(C)(COC(N)=O)COC(=O)NC(C)C (stereo not shown) [Carisoprodol],–,+ (a “+” to indicate whether a particular T2R receptor showed a positive response to a particular API),–,–
CCN(CC)CC(=O)Nc1c(C)cccc1C [Lidocaine],–,+ (a “+” to indicate whether a particular T2R receptor showed a positive response to a particular API),+ (a “+” to indicate whether a particular T2R receptor showed a positive response to a particular API),–
Clc1ccc(COC(Cn2ccnc2)c2ccc(Cl)cc2Cl)c(Cl)c1 (stereo not shown) [Micronazole],–,+ (a “+” to indicate whether a particular T2R receptor showed a positive response to a particular API),–,–
Cn1cnc([N+](=O)[O-])c1Sc1ncnc2nc[nH]c12 [Azathioprine],–,–,+ (a “+” to indicate whether a particular T2R receptor showed a positive response to a particular API),+ (a “+” to indicate whether a particular T2R receptor showed a positive response to a particular API)
CCN1CCN(Cc2ccc(Nc3ncc(F)c(-c4cc(F)c5nc(C)n(C(C)C)c5c4)n3)nc2)CC1 [Abamaciclib],–,–,–,+ (a “+” to indicate whether a particular T2R receptor showed a positive response to a particular API)
COc1ccc(Cc2nccc3cc(OC)c(OC)cc23)cc1OC [Papaverine],–,+ (a “+” to indicate whether a particular T2R receptor showed a positive response to a particular API),+ (a “+” to indicate whether a particular T2R receptor showed a positive response to a particular API),–
CN1CCC(C(=O)c2cccc(NC(=O)c3c(F)cc(F)cc3F)n2)CC1 [Lasmitidan],–,–,+ (a “+” to indicate whether a particular T2R receptor showed a positive response to a particular API),+ (a “+” to indicate whether a particular T2R receptor showed a positive response to a particular API)
O=C(O)c1cn(C2CC2)c2cc(N3CCNCC3)c(F)cc2c1=O [Ciprofloxacin],–,–,–,+ (a “+” to indicate whether a particular T2R receptor showed a positive response to a particular API)
COc1ccc(-n2nc(C(N)=O)c3c2C(=O)N(c2ccc(N4CCCCC4=O)cc2)CC3)cc1 [Apixaban],–,–,+ (a “+” to indicate whether a particular T2R receptor showed a positive response to a particular API),–
c1ccc(CC2=NCCN2)cc1 [Tolazoline],–,–,+ (a “+” to indicate whether a particular T2R receptor showed a positive response to a particular API),+ (a “+” to indicate whether a particular T2R receptor showed a positive response to a particular API)
NS(=O)(=O)c1cc2c(cc1Cl)NCNS2(=O)=O [Hydrochlorothiazide],–,–,+ (a “+” to indicate whether a particular T2R receptor showed a positive response to a particular API),+ (a “+” to indicate whether a particular T2R receptor showed a positive response to a particular API)
CCn1cc(C(=O)O)c(=O)c2cc(F)c(N3CCNCC3)nc21 [Enoxacin],–,–,–,+ (a “+” to indicate whether a particular T2R receptor showed a positive response to a particular API)
Nc1ccc(S(=O)(=O)c2ccc(N)cc2)cc1 [Dapsone],–,–,+ (a “+” to indicate whether a particular T2R receptor showed a positive response to a particular API),–
CN1CCCC(n2nc(Cc3ccc(Cl)cc3)c3ccccc3c2=O)CC1 (stereo not shown) [Azelastine],–,–,+ (a “+” to indicate whether a particular T2R receptor showed a positive response to a particular API),+ (a “+” to indicate whether a particular T2R receptor showed a positive response to a particular API)
COc1ccc(C(CN(C)C)C2(O)CCCCC2)cc1 (stereo not shown) [Venlafaxine],–,–,+ (a “+” to indicate whether a particular T2R receptor showed a positive response to a particular API),+ (a “+” to indicate whether a particular T2R receptor showed a positive response to a particular API)
O=C(O)Cc1ccccc1Nc1c(Cl)cccc1Cl [Diclofenac],–,+ (a “+” to indicate whether a particular T2R receptor showed a positive response to a particular API),–,–
Cc1cccc(Nc2ccccc2C(=O)O)c1C [Mefenamic Acid],–,+ (a “+” to indicate whether a particular T2R receptor showed a positive response to a particular API),–,–
Cn1c(=O)c2c(ncn2C)n(C)c1=O [Caffeine],–,+ (a “+” to indicate whether a particular T2R receptor showed a positive response to a particular API),+ (a “+” to indicate whether a particular T2R receptor showed a positive response to a particular API),+ (a “+” to indicate whether a particular T2R receptor showed a positive response to a particular API)
C[C@]12CCC(=O)C=C1CC[C@@H]1[C@@H]2[C@@H](O)C[C@@]2(C)[C@H]1CC[C@]2(O)C(=O)CO [Hydrocortisone],–,–,–,+ (a “+” to indicate whether a particular T2R receptor showed a positive response to a particular API)
O=C(O)c1ccccc1Nc1cccc(C(F)(F)F)c1 [Flufenamic Acid],–,+ (a “+” to indicate whether a particular T2R receptor showed a positive response to a particular API),–,–
Cc1cccn2c(=O)c(-c3nnn[nH]3)cnc12 [Pemirolast],–,+ (a “+” to indicate whether a particular T2R receptor showed a positive response to a particular API),–,–
O=C(CCCN1CCC(O)(c2ccc(Cl)cc2)CC1)c1ccc(F)cc1 [Haloperidol],–,+ (a “+” to indicate whether a particular T2R receptor showed a positive response to a particular API),+ (a “+” to indicate whether a particular T2R receptor showed a positive response to a particular API),–
O=C(O)c1cccnc1Nc1cccc(C(F)(F)F)c1 [Niflumic Acid],–,+ (a “+” to indicate whether a particular T2R receptor showed a positive response to a particular API),–,–
